According to ChEMBL document CHEMBL5226284, “Small Molecule Inhibitors Targeting Biosynthesis of Ceramide, the Central Hub of the Sphingolipid Network” (J Med Chem, 2021):
pIC50: −log10 of the molar value. Values belong to the molecule of their own block, whether it stands above or below them.

What was measured:
[1] = Inhibition of rat brain aSMase; format: tissue-based
[2] = biological target: T1, Sphingomyelin phosphodiesterase 2 (Rattus norvegicus) (UniProt Q9ET64); experiment: Inhibition of rat brain microsomes nSMase at 200 uM measured after 90 mins relative to control; settings: Microsome
T1 sequence (whole entry): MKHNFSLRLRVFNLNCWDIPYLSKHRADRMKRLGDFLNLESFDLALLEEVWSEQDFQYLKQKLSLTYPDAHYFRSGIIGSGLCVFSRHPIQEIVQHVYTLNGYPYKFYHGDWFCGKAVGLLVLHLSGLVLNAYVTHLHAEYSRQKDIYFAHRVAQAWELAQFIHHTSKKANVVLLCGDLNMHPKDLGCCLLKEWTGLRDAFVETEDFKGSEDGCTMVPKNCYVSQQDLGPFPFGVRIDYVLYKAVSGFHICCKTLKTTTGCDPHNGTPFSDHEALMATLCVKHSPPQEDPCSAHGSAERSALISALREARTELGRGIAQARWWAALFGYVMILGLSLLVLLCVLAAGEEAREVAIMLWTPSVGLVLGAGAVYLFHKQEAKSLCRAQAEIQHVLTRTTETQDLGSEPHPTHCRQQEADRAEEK

[3] = biological target: T2, Sphingomyelinase C (Bacillus cereus, UniProt P11889); experiment: Inhibition of Bacillus cereus SMaseC
T2 sequence (P11889 whole entry): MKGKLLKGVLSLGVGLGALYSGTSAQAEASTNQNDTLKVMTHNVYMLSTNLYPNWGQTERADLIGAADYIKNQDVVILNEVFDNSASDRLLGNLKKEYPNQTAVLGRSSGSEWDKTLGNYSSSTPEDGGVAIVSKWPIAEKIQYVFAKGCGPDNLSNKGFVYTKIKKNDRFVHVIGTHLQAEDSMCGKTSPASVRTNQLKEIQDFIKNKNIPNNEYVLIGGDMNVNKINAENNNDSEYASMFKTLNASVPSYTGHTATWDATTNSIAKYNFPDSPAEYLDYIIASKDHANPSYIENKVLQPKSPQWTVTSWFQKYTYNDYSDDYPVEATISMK

[4] = biological target: T1, Sphingomyelin phosphodiesterase 2 (Rattus norvegicus); experiment: Inhibition of rat brain microsomes nSMase at 350 uM measured after 15 mins relative to control; settings: Microsome
[5] = Inhibition of CerS human HCT-116 cells microsomal fraction assessed as reduction in C18 dihydroceramide synthesis by LC-MS/MS analysis; format: microsomes, Microsome
[6] = Inhibition of CerS human HCT-116 cells microsomal fraction assessed as reduction in C24:1 dihydroceramide synthesis by LC-MS/MS analysis; format: microsomes, Microsome
[7] = Inhibition of rat brain aSMase using HMU-PC as substrate incubated for 3 hrs by fluorescence plate reader assay; format: tissue-based
[8] = biological target: T3, Sphingomyelin phosphodiesterase 2 (Rattus norvegicus, UniProt Q9ET64); experiment: Inhibition of rat brain microsomes nSMase; design: species or system Microsome
T3 sequence (Q9ET64 whole entry): T1 sequence (whole entry)

[9] = biological target: T4, Sphingomyelin phosphodiesterase 2 (Mus musculus, UniProt O70572); experiment: Inhibition of mouse nSMase
T4 sequence (O70572 whole entry): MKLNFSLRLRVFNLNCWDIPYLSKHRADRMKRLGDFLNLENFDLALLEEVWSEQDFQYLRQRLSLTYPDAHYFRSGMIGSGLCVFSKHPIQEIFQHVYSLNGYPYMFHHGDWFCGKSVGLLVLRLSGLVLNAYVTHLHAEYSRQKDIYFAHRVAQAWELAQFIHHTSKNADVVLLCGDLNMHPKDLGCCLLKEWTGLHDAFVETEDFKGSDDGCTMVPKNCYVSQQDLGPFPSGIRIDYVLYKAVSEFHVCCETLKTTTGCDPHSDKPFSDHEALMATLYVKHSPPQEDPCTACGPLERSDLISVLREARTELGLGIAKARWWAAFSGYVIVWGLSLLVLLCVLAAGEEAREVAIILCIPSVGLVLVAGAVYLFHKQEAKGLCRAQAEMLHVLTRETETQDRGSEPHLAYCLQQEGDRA

[10] = Inhibition of rat brain aSMase using HMU-PC as substrate incubated for 3 hrs by fluorescence based analysis; format: tissue-based
[11] = biological target: T1, Sphingomyelin phosphodiesterase 2 (Rattus norvegicus); experiment: Inhibition of rat brain microsomes nSMase at 100 uM incubated for 60 mins relative to control; settings: Microsome
[12] = biological target: T1, Sphingomyelin phosphodiesterase 2 (Rattus norvegicus); experiment: Inhibition of rat brain microsomes nSMase at 100 uM relative to control; settings: Microsome
[13] = test system: Neutral sphingomyelinase (Sus scrofa); experiment: Inhibition of pig liver plasma membranes nSMase at 100 uM measured after 15 mins at 100 uM relative to control; settings: Plasma membrane
[14] = Inhibition of CerS human HCT-116 cells microsomal fraction assessed as reduction in C16 dihydroceramide synthesis by LC-MS/MS analysis; format: microsomes, Microsome
[15] = Inhibition of CerS human HCT-116 cells microsomal fraction assessed as reduction in C24 dihydroceramide synthesis by LC-MS/MS analysis; format: microsomes, Microsome
[16] = species on record: Bos taurus; experiment: Inhibition of bovine brain microsomes nSMase measured after 60 mins relative to control; settings: Microsome
[17] = biological target: Sphingomyelin phosphodiesterase 3 (Homo sapiens) (UniProt Q9NY59); experiment: Inhibition of nSMase2 (unknown origin) at 50 uM relative to control
Sphingomyelin phosphodiesterase 3 (Homo sapiens), sequence (Q9NY59 whole entry): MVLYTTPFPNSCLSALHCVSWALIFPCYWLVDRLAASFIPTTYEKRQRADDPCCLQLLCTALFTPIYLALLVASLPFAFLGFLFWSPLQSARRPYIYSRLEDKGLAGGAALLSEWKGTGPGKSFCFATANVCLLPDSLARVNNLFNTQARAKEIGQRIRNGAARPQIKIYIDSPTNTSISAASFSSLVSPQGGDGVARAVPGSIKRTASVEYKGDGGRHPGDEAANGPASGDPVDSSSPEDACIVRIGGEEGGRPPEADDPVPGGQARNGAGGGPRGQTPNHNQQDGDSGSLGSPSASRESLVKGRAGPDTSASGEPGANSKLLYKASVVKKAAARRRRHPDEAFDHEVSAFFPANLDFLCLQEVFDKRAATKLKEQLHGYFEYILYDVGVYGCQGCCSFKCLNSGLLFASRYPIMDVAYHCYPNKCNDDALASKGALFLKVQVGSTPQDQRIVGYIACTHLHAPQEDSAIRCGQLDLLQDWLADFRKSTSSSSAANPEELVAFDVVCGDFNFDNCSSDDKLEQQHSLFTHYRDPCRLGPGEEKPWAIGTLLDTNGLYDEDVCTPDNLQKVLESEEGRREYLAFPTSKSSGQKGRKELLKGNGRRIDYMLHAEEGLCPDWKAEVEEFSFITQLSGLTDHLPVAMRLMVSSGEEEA

[18] = biological target: T5, Ceramide synthase 1 (Homo sapiens) (UniProt P27544); experiment: Inhibition of CerS1 (unknown origin) at 10 uM relative to control
T5 sequence (whole entry): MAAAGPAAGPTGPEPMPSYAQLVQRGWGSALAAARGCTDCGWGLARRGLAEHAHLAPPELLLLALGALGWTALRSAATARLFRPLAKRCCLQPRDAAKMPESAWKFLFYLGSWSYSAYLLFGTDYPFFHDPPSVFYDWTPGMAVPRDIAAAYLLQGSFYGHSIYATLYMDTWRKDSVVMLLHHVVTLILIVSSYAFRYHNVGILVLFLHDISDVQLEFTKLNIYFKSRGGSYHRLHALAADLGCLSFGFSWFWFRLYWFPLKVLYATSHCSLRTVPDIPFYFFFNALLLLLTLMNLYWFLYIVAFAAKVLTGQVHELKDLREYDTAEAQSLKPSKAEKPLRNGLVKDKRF

[19] = biological target: T6, Sphingolipid delta(4)-desaturase DES1 (Rattus norvegicus, UniProt Q5XIF5); experiment: Inhibition of rat liver microsome DES1 incubated for 20 min in presence of NADH by liquid scintillation counter method; format: microsomes
T6 sequence (Q5XIF5 whole entry): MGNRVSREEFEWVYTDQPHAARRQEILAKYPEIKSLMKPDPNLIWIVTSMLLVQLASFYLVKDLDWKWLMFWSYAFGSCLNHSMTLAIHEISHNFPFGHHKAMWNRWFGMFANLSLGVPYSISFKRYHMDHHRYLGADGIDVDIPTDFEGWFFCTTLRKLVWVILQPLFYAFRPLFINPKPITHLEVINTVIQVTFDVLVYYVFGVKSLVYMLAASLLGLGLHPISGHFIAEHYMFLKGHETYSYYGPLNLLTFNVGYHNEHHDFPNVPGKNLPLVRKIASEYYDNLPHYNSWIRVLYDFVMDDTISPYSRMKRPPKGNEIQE

pIC50 [1]: 5.02
SMILES: Cc1csc(-c2c(C(F)(F)F)oc3cc(O)c(C)cc3c2=O)n1

inhibition [2]: 80%
SMILES: CCCCCCCCCC(=O)N[C@H](CO)C(=O)NC1=CC2(CO2)C(=O)C=C1 (some centres not stated)

SMILES: CCCCCCC[C@@H](O)[C@H](CNP(=O)([O-])OCC[N+](C)(C)C)NC(=O)CCCCC
pIC50 [3]: 4.28

inhibition [4]: 90%
SMILES: C/C=C/C=C/C(=O)N[C@@H](CO)[C@H]1CC(CCCCCC)C(=O)O1 (some centres not stated)

pIC50 [5]: 4.67 | pIC50 [6]: 4.54
SMILES: CCCCCCCOc1ccc(CCC(CO)(CO)N(C)C)cc1

pIC50 [7]: 7.70
SMILES: CCCCCCCCCC(N)(P(=O)(O)O)P(=O)(O)O

pIC50 [8]: 5.30
SMILES: N=C(N)N/N=C/c1cc2ccccc2[nH]1

pIC50 [1]: 5.51
SMILES: COc1ccc2oc(-c3cc(Br)cc4c3OCOC4)c(N)c(=O)c2c1

pIC50 [7]: 7.10
SMILES: CCCCCCCCCC(O)(P(=O)(O)O)P(=O)(O)O

pIC50 [9]: 6.05
SMILES: CCN(CC)c1ccc(C2NC(=S)NC(C)=C2C(=O)Nc2ccccc2OC)cc1 (configuration not stated)

inhibition [2]: 33%
SMILES: CCCCCCCCCC(=O)N[C@H](C)C(=O)NC1=CC2(CO2)C(=O)C=C1 (some centres not stated)

pIC50 [8]: 5.09
SMILES: CCCCCCCCC/C=N/NC(=N)N

pIC50 [10]: < 4.00
SMILES: COS(=O)(=O)O[C@@H]1[C@H](O)[C@H](OP(=O)(O)O)[C@@H](O)[C@H](OP(=O)(O)O)[C@H]1O

inhibition [11]: 88% | inhibition [12]: 10%
SMILES: CCCCCCCCCCCC(=O)NC1=CC(=O)[C@H]2O[C@H]2C1=O

inhibition [13]: > 90%
SMILES: COc1c(O)c(C)c(C/C=C(\C)CC/C=C(\C)CC/C=C(\C)CC/C=C(\C)CC/C=C(\C)CC/C=C(\C)CC/C=C(\C)CC/C=C(\C)CC/C=C(\C)CCC=C(C)C)c(O)c1OC

pIC50 [14]: 4.59 | pIC50 [5]: 4.29 | pIC50 [15]: 4.22
SMILES: CCCCCCCCc1ccc(CCC(CO)(CO)NCC)cc1

inhibition [4]: 50% | inhibition [16]: 90%
SMILES: C/C=C/C=C/C(=O)N[C@@H](CO)[C@H]1C=C(CCCCCC)C(=O)O1

inhibition [17]: 60%
SMILES: CN1c2ccc(OC(=O)Nc3ccccc3)nc2[C@]2(C)CCO[C@H]12

pIC50 [14]: 4.30 | pIC50 [5]: 4.57 | pIC50 [15]: 4.09 | pIC50 [6]: 4.21
SMILES: CCCCCCCOc1ccc(CCC(CO)(CO)NC(=O)CCCc2ccccc2)cc1

SMILES: CCCCCCC[C@@H](O)[C@H](CCP(=O)([O-])OCC[N+](C)(C)C)NC(=O)CCCCC
pIC50 [3]: 3.92

pIC50 [9]: 6.07
SMILES: CCOc1ccc(OCC)c(NC(=O)C2=C(C)NC(=S)NC2c2ccc(N(CC)CC)cc2)c1 (configuration not stated)

inhibition [18]: 16%
SMILES: CCCCOc1ccc(CC[C@](C)(N)CO)cc1

pIC50 [9]: 5.60
SMILES: S=c1[nH]nc(-c2cccs2)n1CC1CCCCC1

pIC50 [19]: 5.77
SMILES: CC1=C(/C=C/C(C)=C/C=C/C(C)=C/C(=O)Nc2ccc(O)cc2)C(C)(C)CCC1=O
